For assay [1], the target named is T1, BTK (Homo sapiens (Human), UniProt Q06187). Put plainly: Omnia assay protocol for potency assessment against BTK. The assay is classed as biochemical. The settings on record: Omnia assay; [BTK]=5 nM; read-out: BTK Inhibition. The text has this:
Omnia Assay Protocol for Potency Assessment Against BTK

For assay [2], the target named is EGFR-WT (Homo sapiens (Human), UniProt P00533). The experiment in a line: Omnia assay for potency assessment against EGFR (WT). As to conditions: read-out: EGFR Wild Type Inhibition. The assay is classed as biochemical.
In assay [3] the target is T1, BTK. Put plainly: BTK Ramos cellular assay (phosphorylation of BTK substrate PLCγ2). The assay is classed as cell-based. As to conditions: Ramos cells, anti-IgM stimulated, read-out: BTK Inhibition (BTK Ramos Cellular Inhibition Data). On the procedure:
Ramos cells were grown in suspension in T225 flasks, spun down, resuspended in 50 ml serum-free media and incubated for 1 hour. […] Ramos cells were incubated with compound for 1 hour, washed again and resuspended in 100 ul serum-free media. Cells were then stimulated with 1 μg of goat F(ab′)2 Anti-Human IgM and incubated on ice for 10 minutes to activate B cell receptor signaling pathways. After 10 minutes, the cells were washed once with PBS and then lysed on ice with Invitrogen Cell Extraction buffer. 16 μg total protein from lysates were loaded on gel and blots were probed for phosphorylation of the BTK substrate PLCγ2.

Assay [4] concerns the target ITK (Homo sapiens (Human), UniProt Q08881). The experiment in a line: Omnia assay for potency assessment against active forms of ITK kinase. The assay is classed as biochemical. As to conditions: [ITK]=10 nM, [ATP]=25 μM, [Y6-Sox]=10 μM; read-out: ITK Inhibition.
Assay [5] addresses T1, BTK. The experiment in a line: Mass spectrometry for BTK (intact protein, covalent modification). The assay is classed as binding. On the procedure:
Mass Spectrometry for BTK
Intact BTK was incubated for 1 hr at a 10× fold excess of I-7 to protein. Aliquots (2 μl) of the samples were diluted with 10 μl of 0.1% TFA prior to micro C4 ZipTipping directly onto the MALDI target using Sinapinic acid as the desorption matrix (10 mg/ml in 0.1% TFA:Acetonitrile 20:80).

Assay [6] concerns the target JAK3 kinase (Homo sapiens (Human), UniProt P52333). The experiment in a line: Mass spectrometry for Janus-3 kinase (JAK3), tryptic digest. The assay is classed as binding, homosapien. The settings on record: 3 hrs at 10× excess, peptide LVMEYLPSGCLR
Here is the method: Mass Spectrometry for Janus-3 Kinase (JAK3)
JAK3 kinase (33 pmols; Invitrogen) was incubated with (I-7) (327 pmols) for 3 hrs at 10× excess prior to tryptic digestion. Iodoacetamide was used as the alkylating agent after compound incubation. For tryptic digests a 5 ul aliquot (5.5 pmols) was diluted with 15 ul of 0.1% TFA prior to micro C18 Zip Tipping directly onto the MALDI target using alpha cyano-4-hydroxy cinnamic acid as the matrix (5 mg/ml in 0.1% TFA:Acetonitrile 50:50).
(§1) For tryptic digests the instrument was set in Reflectron mode with a pulsed extraction setting of 2200. Calibration was done using the Laser Biolabs Pep Mix standard ([…], 1296.69, 1672.92, 2093.09, 2465.20). For CID/PSD analysis the peptide was selected using cursors to set ion gate timing and fragmentation occurred at a laser power about 20% higher and He was used as the collision gas for CID. Calibration for fragments was done using the P14R fragmentation calibration for the Curved field Reflectron.

Assay [7] concerns the target T1, BTK. The experiment in a line: Washout experiment with Ramos cells (PLCγ2 phosphorylation). The assay is classed as cell-based. As to conditions: Ramos washout assay, 100 nM compound for 1 hour. Here is the method: Washout Experiment with Ramos Cells
Ramos cells were serum starved for one hour in RPMI media +1% glutamine at 37° C. After starvation, Ramos cells were treated with 100 nM compound diluted in serum free RPMI media for 1 hour. After compound treatment, the media was removed and cells were washed with compound-free media. Subsequently, Ramos cells were washed every 2 hours and resuspended in fresh compound-free media. Cells were collected at specified timepoints, treated with 1 ug anti-human IgM (Southern Biotech cat #2022-01) for 10 minutes on ice to induce BCR signaling and then washed in PBS. Ramos cells were then lysed in Cell Extraction Buffer (Invitrogen FNN0011) supplemented with Roche complete protease inhibitor tablets (Roche 11697498001) and phosphatase inhibitors (Roche 04 906 837 001) and 18 ug total protein lysate was loaded in each lane. Inhibition of BTK kinase activity was assayed by measuring its substrate (PLCγ2) phosphorylation by western blot with phospho-specific antibodies from Cell Signaling Technologies cat#3871. The results of this experiment with compounds I-2, I-4 and I-7 are depicted in FIGS. 1, 2 and 3.

Assay [8] addresses T1, BTK. The experiment in a line: BTK occupancy from in vitro samples by ELISA (Ramos cells, probe I-215). The assay is classed as cell-based. As to conditions: probe I-215 ELISA. The text has this: Measuring BTK occupancy from in vitro samples by ELISA
In order to determine the amount of free BTK in cell or tissue lysates, an ELISA protocol was employed that utilizes a biotinylated probe compound that binds only to free, unoccupied BTK. The conjugated biotin is captured on a streptavidin-coated ELISA plate and detected with a mouse anti-BTK antibody (Becton Dickinson, Franklin Lakes, N.J., USA) and a secondary goat anti-mouse HRP antibody (Zymed, South San Francisco, Calif., USA).
All samples were prepared with equal concentrations of Biorad lysis buffer (Hercules, Calif., USA), 0.5% bovine serum albumin in PBS with 0.05% Tween-20 to give a final concentration of 1 μM I-215. Samples were incubated in a mixing plate for 1 hr at room temperature while shaking to allow probe compound I-215 to bind to free BTK. After incubation with I-215, samples were added to a washed, streptavidin-coated ELISA plate (Pierce, Rockford, Ill., USA) and incubated for 1 hr at room temperature while shaking. The plate was then washed with PBS containing 0.05% Tween-20 using an automatic plate washer. Anti-BTK antibody was prepared at 1:1000 dilution in 0.5% BSA in PBS (0.05% Tween-20) and added to the ELISA plate. The plate was incubated for 1 hr at room temperature while shaking. The plate was washed as described above and the secondary HRP antibody was prepared at 1:5000 dilution in 0.5% BSA in PBS (0.05% Tween-20). The plate was incubated and washed as described above. TMB was added to the plate, and OD650 was monitored until reaching 1 OD unit. The reaction was then stopped with addition of H2SO4. The plate was analyzed using Gen 5 software, and a 4 Parameter Logistic curve was employed to quantitate samples. Recombinant BTK (Invitrogen, Carlsbad, Calif., USA) was used for the standard curve.
A concentration designated as “A” is greater than 1 nM; a concentration designated as “B” is greater than 10 nM; and a concentration designated as “C” is greater than 50 nM.
On the technique in general: ELISA stands for enzyme-linked immunosorbent assay.

For assay [9], the target named is TEC kinase (Homo sapiens (Human), UniProt P42680). Put plainly: Mass spectrometry for TEC kinase (tryptic digest). The assay is classed as binding, Homo sapien. The settings on record: 3 hrs at 10× excess, peptide GCLLNFLR
On the procedure:
Mass Spectrometry for TEC Kinase (Compound I-2)
TEC kinase (45 pmols; Invitrogen) was incubated with (I-2) (450 pmols) for 3 hrs at 10× excess prior to tryptic digestion. Iodoacetamide was used as the alkylating agent after compound incubation. […] For tryptic digests a 5 ul aliquot (7.5 pmols) was diluted with 15 ul of 0.1% TFA prior to micro C18 Zip Tipping directly onto the MALDI target using alpha cyano-4-hydroxy cinnamic acid as the matrix (5 mg/ml in 0.1% TFA:Acetonitrile 50:50).
as §1
Mass Spectrometry for TEC Kinase (Compound I-4)
TEC kinase (45 pmols; Invitrogen) was incubated with (I-4) (450 pmols) for 3 hrs at 10× excess prior to tryptic digestion. Iodoacetamide was used as the alkylating agent after compound incubation. […] For tryptic digests a 5 ul aliquot (7.5 pmols) was diluted with 15 ul of 0.1% TFA prior to micro C18 Zip Tipping directly onto the MALDI target using alpha cyano-4-hydroxy cinnamic acid as the matrix (5 mg/ml in 0.1% TFA:Acetonitrile 50:50).
For tryptic digests the instrument was set in Reflectron mode with a pulsed extraction setting of 1800. Calibration was done using the Laser Biolabs Pep Mix standard ([…], 1296.69, 1672.92, 2093.09, 2465.20). For CID/PSD analysis the peptide was selected using cursors to set ion gate timing and fragmentation occurred at a laser power about 20% higher and He was used as the collision gas for CID. Calibration for fragments was done using the P14R fragmentation calibration for the Curved field Reflectron.
Mass Spectrometry for TEC Kinase (Compound I-7) […]

In assay [10] the target is T1, BTK. Put plainly: Washout experiment with I-7 and probe compound I-215 in Ramos cells. As to conditions: 0.1 μM for 1 hour, then washout, probe I-215. The assay is classed as cell-based. On the procedure: Washout Experiment with I-7 and Probe Compound I-215
Ramos cells were incubated with 0.1 μM I-7 or a reversible BTK inhibitor control compound in serum free media for 1 hour at 37° C. The cells were then washed in compound-free media and lysed 0, 4, 6, or 8 hours after compound removal. Cell lysates were incubated with 1 μM I-215 for 1 hour at room temperature, then overnight at 4° C. with streptavidin-coupled agarose beads. Protein was boiled off the beads and BTK association was assessed by western blot. […] In contrast, with the reversible inhibitor control, 45% of BTK protein is unbound and available to the probe at 0 hours and by 4 hours 100% of BTK protein is unbound and available to bind the probe. All samples were normalized to the DMSO-treated cells harvested at 0 hours.

The structures appear in SMILES notation. Entries after “also recorded” stand apart in the source; their conditions may differ. Bounds are passed on as bounds.

T1 sequence (Q06187 whole entry): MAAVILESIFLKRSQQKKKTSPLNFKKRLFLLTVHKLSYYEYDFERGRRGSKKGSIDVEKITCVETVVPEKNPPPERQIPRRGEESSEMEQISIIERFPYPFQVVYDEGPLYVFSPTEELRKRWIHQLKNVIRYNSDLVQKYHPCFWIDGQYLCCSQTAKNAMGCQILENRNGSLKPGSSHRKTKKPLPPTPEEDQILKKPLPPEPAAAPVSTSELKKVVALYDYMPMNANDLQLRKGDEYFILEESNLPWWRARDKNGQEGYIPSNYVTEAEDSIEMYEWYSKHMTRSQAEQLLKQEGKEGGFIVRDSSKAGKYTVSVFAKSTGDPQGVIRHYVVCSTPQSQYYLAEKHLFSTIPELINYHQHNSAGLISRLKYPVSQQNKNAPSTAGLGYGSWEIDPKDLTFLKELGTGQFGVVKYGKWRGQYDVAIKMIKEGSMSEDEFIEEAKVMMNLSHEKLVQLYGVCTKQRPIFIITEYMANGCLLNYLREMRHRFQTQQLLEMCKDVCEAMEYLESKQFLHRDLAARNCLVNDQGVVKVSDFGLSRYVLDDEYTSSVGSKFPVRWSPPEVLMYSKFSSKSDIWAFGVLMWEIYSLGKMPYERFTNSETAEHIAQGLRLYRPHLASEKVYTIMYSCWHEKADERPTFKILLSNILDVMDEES
Sequence of TEC kinase (P42680 whole entry): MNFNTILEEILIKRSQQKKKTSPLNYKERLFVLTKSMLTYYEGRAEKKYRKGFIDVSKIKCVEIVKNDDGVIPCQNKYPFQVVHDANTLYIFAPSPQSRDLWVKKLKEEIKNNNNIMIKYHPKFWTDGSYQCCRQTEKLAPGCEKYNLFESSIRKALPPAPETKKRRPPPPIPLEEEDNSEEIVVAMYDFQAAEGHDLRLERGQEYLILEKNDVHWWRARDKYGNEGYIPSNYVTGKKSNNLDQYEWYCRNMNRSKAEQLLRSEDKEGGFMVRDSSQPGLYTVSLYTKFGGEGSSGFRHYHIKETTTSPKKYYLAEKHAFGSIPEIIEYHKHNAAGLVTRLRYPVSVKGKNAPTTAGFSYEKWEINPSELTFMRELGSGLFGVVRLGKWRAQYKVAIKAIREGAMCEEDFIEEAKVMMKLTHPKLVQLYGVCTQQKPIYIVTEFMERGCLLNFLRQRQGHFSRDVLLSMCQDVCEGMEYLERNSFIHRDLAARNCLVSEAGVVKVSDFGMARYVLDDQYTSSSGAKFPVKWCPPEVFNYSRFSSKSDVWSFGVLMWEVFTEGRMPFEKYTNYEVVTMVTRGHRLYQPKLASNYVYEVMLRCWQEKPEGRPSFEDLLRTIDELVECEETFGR
Sequence of JAK3 kinase (P52333 whole entry): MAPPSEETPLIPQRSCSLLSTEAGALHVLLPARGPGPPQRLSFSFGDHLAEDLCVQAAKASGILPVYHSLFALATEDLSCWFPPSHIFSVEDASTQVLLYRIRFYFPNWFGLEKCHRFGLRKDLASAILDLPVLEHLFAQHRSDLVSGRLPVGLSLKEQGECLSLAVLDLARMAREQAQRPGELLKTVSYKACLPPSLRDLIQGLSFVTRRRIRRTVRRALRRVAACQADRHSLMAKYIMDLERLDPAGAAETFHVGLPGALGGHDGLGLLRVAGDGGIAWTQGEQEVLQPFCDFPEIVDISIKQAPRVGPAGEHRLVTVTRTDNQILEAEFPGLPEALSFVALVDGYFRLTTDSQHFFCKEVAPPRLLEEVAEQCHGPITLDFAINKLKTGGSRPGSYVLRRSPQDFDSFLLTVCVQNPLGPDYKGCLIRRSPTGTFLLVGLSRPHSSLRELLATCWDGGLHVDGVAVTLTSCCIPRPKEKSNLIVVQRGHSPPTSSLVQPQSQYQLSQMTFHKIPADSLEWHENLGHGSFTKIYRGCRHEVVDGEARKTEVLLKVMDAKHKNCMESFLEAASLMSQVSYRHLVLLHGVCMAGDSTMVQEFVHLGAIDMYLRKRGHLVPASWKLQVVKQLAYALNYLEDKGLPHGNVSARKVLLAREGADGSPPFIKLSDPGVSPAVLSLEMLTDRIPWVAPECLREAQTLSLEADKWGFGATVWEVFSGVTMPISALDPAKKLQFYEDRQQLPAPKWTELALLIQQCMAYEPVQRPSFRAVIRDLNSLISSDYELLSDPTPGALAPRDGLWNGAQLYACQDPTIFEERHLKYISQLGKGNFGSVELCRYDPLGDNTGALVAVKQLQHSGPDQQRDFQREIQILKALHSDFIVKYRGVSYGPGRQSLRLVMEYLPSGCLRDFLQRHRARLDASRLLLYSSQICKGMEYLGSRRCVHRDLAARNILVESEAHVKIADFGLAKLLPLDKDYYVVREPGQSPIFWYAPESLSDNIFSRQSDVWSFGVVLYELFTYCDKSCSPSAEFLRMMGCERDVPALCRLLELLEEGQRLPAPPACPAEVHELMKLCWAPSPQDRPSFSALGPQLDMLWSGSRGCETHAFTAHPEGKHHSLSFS
Sequence of EGFR-WT (P00533 25-1210): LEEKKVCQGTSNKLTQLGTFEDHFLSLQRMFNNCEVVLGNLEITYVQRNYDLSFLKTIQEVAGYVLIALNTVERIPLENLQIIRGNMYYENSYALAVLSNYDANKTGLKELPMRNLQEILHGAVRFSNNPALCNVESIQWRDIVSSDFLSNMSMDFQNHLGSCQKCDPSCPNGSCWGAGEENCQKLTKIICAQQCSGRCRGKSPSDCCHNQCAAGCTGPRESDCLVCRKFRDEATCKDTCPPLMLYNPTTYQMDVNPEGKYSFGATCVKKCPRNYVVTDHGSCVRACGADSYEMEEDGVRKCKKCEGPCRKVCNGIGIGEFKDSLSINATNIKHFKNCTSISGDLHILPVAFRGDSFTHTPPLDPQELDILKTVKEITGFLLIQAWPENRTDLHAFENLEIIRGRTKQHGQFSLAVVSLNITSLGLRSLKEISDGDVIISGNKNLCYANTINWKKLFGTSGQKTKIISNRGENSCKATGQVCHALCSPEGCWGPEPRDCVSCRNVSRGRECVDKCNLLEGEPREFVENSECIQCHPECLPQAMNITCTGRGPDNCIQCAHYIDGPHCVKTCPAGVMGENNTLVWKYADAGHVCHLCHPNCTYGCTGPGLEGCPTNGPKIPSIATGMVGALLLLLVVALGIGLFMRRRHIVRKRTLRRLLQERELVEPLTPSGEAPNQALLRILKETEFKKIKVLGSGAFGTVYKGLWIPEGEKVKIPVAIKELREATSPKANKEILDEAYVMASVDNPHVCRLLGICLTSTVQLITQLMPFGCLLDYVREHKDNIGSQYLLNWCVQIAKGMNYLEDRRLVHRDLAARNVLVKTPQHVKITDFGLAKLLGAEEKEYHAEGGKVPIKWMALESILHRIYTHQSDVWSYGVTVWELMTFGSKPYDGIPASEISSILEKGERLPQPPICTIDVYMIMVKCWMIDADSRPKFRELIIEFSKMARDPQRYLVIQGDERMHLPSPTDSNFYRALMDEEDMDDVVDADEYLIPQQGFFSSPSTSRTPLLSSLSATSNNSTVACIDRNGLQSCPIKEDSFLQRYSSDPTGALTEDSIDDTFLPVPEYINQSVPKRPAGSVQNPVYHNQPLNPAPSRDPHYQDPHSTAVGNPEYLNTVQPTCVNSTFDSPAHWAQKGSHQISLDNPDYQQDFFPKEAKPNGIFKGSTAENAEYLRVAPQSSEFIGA
Sequence of ITK (Q08881 whole entry): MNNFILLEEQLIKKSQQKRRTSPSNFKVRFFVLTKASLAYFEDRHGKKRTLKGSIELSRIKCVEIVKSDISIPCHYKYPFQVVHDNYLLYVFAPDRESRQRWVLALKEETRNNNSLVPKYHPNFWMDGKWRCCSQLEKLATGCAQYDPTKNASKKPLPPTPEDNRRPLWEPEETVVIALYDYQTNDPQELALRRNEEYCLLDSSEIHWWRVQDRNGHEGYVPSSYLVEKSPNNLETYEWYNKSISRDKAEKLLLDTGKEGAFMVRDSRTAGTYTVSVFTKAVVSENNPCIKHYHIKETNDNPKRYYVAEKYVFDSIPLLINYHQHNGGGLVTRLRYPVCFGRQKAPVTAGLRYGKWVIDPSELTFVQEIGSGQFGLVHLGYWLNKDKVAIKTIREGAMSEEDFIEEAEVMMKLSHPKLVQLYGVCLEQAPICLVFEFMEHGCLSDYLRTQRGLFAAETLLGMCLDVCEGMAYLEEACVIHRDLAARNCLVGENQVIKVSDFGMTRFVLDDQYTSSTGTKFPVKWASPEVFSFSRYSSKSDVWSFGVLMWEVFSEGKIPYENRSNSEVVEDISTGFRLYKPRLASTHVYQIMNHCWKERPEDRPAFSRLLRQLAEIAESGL

Take `C=CC(=O)Nc1cccc(Oc2nc(Nc3ccc(OC)nc3)ncc2C(=O)NC2CC2)c1` [Compound I-176, 4-(3-acrylamidophenoxy)-2-(6-methoxypyridin-3-ylamino)-pyrimidine-5-carboxylic acid cyclopropylamide]: the IC50 in assay [1] is < 0.01 µM; in [2], < 0.01 µM; in assay [3], 0.1 to 1 µM; in [4], 0.01 to 0.1 µM.

For the compound `C=CC(=O)Nc1cccc(Nc2nc(Nc3ccccc3)ncc2C)c1` [Compound I-7, N-(3-(5-methyl-2-(phenylamino)pyrimidin-4-ylamino)phenyl) acrylamide], in assay [5] (intact BTK incubated 1 hr with 10× fold excess of compound), the “positive shift of centroid mass of BTK” value is recorded as “about 371.1 Da”. Further, the “covalent modification of BTK by mass spectrometry” value in assay [5] (intact BTK, 1 hr, 10× fold excess of compound) is “complete modification; also recorded: covalent modification of BTK”. In addition, the “covalent modification of JAK3 by mass spectrometry” value in [6] is on record as “reaction was not entirely complete; also recorded: covalent modification of JAK-3 kinase at Cys909”. Also, the “BTK Inhibition Type” value in assay [7] was “irreversible”. Also, in assay [8], the “concentration at which >50% of BTK is occupied” value was “A (greater than 1 nM)” and the “concentration at which >90% of BTK is occupied” value was “B (greater than 10 nM)”. For the same compound, in assay [9], the “covalent modification of TEC kinase by mass spectrometry” value was “reaction was complete; also recorded: covalent modification of TEC kinase at Cys449”. In assay [10], the “time BTK protein remains occupied after compound removal” value is given as “over 8 hours”.

For the origin of these results see patent US10828300B2, “Substituted 2,4-diaminopyrimidines as kinase inhibitors” (Celgene CAR LLC, priority 2008, dated 2020).
